{"source": "patent US20040171687A1", "about": "(priority 2002, published 2004)", "tested_on": "human skin", "assay": "Human skin contact with acidic solution", "conditions": "solution with a pH of less than 0.5", "data": [{"smiles": "O=S(=O)(O)O", "note": "[sulfuric acid]", "values": [{"measurement": "irritation or injury of the hand put into the solution", "result": "an irritation would occur within a relatively short span of time"}]}]}
